The values below come from patent US7425548B2, “Materials and methods for immune system stimulation” (Variety Chidren's Hospital, priority 2004, dated 2008).

For data set [1], the system named is normal lymphocytes. In words: Quantification of cytokine and chemokine synthesis by ELISA. Format: cell-based, human. To be noted: at 100 pg/ml concentration.
The test system of data set [2] is TLR2, TLR4 and TLR6 mRNAs in RAW264.7 cells. In words: TLR mRNA levels, RT-PCR. To be noted: 0-1000 μg/m RR1, 24 hours. Format: cell-based, mouse. As for the experimental part:
The cells (1×10^6) were treated with RR1 (0, 10, 100, 500 and 1000 μg/ml) at 37° C. for 24 hours in a CO2 incubator and mRNA amplified with mouse TLR specific primers.
TLR mRNA and protein levels. TLR2, 4 and 6 mRNA levels were analyzed by RT-PCR using total RNAs extracted from RR1 treated cells. Total RNA was extracted from RR1-treated and untreated RAW 264.7 cells and 0.5 μg/ml RNA was reverse transcribed and amplified using mouse TLR2, 4 and 6 specific PCR primers (R&D SYSTEMS, Minneapolis, Minn.). Mouse GAPDH gene was also amplified as a control. The PCR products were separated on agarose gel.

The test system of data set [3] is HEK293 cells transfected with TLR6. Kind of data set: TLR signaling, IL-8 ELISA. To be noted: HEK/TLR6, RR1 0-100 μg/ml, 24 hours. It counts as cell-based, human. How it is done: HEK293/TLR6 cells (1×10^6) were treated with RR1 (0, 10, 50, and 100 μg/ml) at 37° C. for 24 hours and secreted IL-8 in the medium was analyzed by ELISA protocol.
TLR signaling. To determine the involvement of TLR signaling, parental HEK293 as well as HEK293 cells transfected with human TLR2, TLR6, TLR2/6 or TLR4/CD14/MD2 genes (cloned into pDUO plasmid), were used. These cells (0.5×10^6/ml) were incubated with 0-100 μg/ml of RR1 for 24 hours. Since these cells produce very low level of TNF-α and detectable levels of IL-8 upon activation, IL-8 secreted into the medium was analyzed using ELISA procedure. Incidentally, the IL-8 synthesis is also under the control of the transcription factor NF-κB.

For data set [4], the target named is T1, CR3 (CD11b) on RAW 264.7 macrophages (Mus musculus, UniProt P05555).
T1 construct: endogenous in cells; host or cells: RAW 264.7 mouse macrophages (ATCC)
T1 sequence (P05555 17-1153): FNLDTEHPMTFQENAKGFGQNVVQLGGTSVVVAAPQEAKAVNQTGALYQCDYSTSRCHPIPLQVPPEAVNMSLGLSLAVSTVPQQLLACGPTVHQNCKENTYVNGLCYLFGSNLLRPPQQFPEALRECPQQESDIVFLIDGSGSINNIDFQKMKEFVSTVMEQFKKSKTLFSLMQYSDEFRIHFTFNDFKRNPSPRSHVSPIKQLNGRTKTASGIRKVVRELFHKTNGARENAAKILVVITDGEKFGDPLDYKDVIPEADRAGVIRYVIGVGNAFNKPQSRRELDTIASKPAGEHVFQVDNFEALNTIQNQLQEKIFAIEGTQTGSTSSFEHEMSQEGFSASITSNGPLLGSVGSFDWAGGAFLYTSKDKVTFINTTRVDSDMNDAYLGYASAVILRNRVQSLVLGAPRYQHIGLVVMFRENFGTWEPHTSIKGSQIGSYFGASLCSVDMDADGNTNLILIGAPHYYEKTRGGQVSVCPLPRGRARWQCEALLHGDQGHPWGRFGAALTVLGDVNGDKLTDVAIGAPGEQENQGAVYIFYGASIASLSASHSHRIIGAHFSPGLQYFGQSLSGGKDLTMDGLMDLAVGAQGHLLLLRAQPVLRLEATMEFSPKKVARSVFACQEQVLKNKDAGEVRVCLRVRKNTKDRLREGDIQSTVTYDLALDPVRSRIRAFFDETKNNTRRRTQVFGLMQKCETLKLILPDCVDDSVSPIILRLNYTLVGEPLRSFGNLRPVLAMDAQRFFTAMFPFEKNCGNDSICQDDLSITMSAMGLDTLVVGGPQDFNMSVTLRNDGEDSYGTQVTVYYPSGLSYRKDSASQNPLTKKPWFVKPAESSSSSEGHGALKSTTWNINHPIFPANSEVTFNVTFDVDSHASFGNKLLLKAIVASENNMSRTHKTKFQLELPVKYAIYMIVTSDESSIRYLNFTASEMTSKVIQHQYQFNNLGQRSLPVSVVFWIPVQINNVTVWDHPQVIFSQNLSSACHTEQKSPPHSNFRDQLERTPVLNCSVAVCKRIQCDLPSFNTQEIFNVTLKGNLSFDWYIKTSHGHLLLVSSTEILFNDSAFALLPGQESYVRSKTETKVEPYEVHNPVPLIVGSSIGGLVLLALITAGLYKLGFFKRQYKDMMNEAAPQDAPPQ
T1 sequence (P11835 24-771 partner): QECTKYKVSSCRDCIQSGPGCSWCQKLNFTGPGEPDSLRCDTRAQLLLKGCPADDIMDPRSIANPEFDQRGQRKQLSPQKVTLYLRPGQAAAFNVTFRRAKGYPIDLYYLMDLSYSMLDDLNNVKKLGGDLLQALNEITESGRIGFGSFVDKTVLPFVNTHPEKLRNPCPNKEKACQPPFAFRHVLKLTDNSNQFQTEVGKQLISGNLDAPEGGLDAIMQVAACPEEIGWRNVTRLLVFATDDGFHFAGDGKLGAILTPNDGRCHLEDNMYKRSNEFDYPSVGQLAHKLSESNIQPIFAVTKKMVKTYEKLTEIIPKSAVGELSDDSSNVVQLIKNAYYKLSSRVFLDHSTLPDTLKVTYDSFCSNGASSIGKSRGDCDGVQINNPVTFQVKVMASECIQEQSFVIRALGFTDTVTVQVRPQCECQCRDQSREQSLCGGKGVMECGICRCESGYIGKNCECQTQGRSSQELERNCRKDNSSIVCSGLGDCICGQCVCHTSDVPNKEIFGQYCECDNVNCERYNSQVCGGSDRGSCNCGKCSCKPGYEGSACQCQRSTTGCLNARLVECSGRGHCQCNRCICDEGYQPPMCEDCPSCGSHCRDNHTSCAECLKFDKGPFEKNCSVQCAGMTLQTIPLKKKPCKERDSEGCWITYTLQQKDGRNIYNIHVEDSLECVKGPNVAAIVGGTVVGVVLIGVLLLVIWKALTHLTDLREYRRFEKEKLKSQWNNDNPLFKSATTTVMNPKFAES
Kind of data set: Blocking of CR3 with CD11b mAb, glucan-induced TNF-α synthesis. To be noted: anti-CD11b mAb 5 μg/ml, 37° C. Format: cell-based. How it is done: Effect Blocking of CR3 with CD11b mAb on opsonised binding. To examine whether the glucan specific receptors CR3 is involved in the opsonised recognition/binding of RR1 on macrophages, monoclonal antibodies (mAbs) specific for CR3 (Rat antimouse CD11b from BD BIOSCIENCES, San Jose, Calif.) were used for blocking the CR3. […] TNF-α released by the macrophages into the medium was analyzed by ELISA kit (BD Biosciences, San Jose, Calif.) (Brown, G. D. et al. J. Expt. Med., 2002, 196:407-412; Brown, G. D. et al. J. Exp. Med., 2003, 197:1119-1124).

Data set [5] has as its system normal lymphocytes. In words: Oxidative stress (GSH/GSSG levels). Format: cell-based, human. To be noted: for GSH / GSH/GSSG / GSSG: 24 hours. As for the experimental part: Oxidative stress (GSH/GSSG levels). The measure of the reduced (GSH) as well as oxidized (GSSG) levels of glutathione and their ratio are useful indicators for oxidative stress. The levels of GSH and GSSG were assayed by a colorimetric method using Biotech GSH/GSSG-412 kit (Oxis Research, Portland, Oreg.) according to manufacturer's protocol. Briefly, normal blood samples from healthy donors were incubated with different concentrations of RR1 for 24 hours in a 5% CO2 incubator at 37° C. For GSSG, 100 μl of each of the treated sample was frozen at −70° C. for 4 hours, thawed and added 290 μl of 5% meta phosphoric acid (MPA). The samples were vortexed for 15-20 seconds and centrifuged at 1000×g for 10 minutes. MPA extract (50 μl) was added to 700 μl of GSSG buffer that was used for the calorimetric assay. For GSH measurement 50 μl of the whole blood was frozen at −70° C., thawed and added 350 μl of 5% MPA, vortexed for 15-20 seconds and centrifuged at 10,000×g for 10 minutes. MPA extract (50 μl) was added to 3 ml of the assay buffer and used for further analysis. MPA buffer mixture (200 μl) of each standard and sample was transferred to a spectrophotometer cuvette, added 200 μl of chromogen followed by 200 μl of enzyme in the order and incubated at room temperature for 5 minutes. Afterwards, 200 μl of NADPH was added into the cuvette and changes in the absorbance at 412 nm were recorded in a BECKMAN spectrophotometer. The reaction rates were plotted using the absorbance values and the levels of GSH and GSSG were determined.

The test system of another data set is iNOS. In words: iNOS induction immunoassay. It counts as cell-based, human. To be noted: cytoplasmic extract of cells treated with RR1. How it is done: Inducible Nitric Oxide Synthase (iNOS) induction and Nitric oxide (NO) synthesis. Higher and long lasting release of NO is caused by the enzyme iNOS upon stimulation with […]. The iNOS induction by RR1 stimulation was assayed by QUANTIKINE iNOS immunoassay kit (R&D systems, Minneapolis, Minn.) which employs a sandwich enzyme immunoassay technique. The iNOS was assayed from the cytoplasmic extract of the cells treated with different concentrations of RR1. The samples and standards were pipetted in to the wells of the 96-well plate and any iNOS present was bound to the immobilized antibody. After washing away the unbound substances, an enzyme linked monoclonal antibody specific for iNOS was added. After washing away the unbound antibody enzyme reagent, the color developing substrate solution was added, the color development was stopped by stop solution and the absorbance was read at 450 nm with a reference wave length of 570 nm in the Bio-Rad plate reader.

As for (1,4)-α-D-glucan [RR1], in the data set with normal lymphocytes [1], the “synthesis of IL-1β” value is 1080 pg/mL. The “mRNA levels of TLR2, 4 and 6” value in data set [2] is on record as “remained similar”. For the same substance, in data set [3], the IL-8 production entry was “copious induction of IL-8”. In addition, the “% reduction of secreted TNF-α” value was 4.25 ± 3.66% in data set [4] (then glucan 100 μg/ml) and 1.89 ± 0.50% in data set [4] (then glucan 500 μg/ml). In addition, the results for the GSH in the data set on normal lymphocytes [5] (RR1 5 μg/ml), with normal lymphocytes [5] (RR1 10 μg/ml) and in the data set with normal lymphocytes [5] (RR1 50 μg/ml) were 365.08 ± 3.81 µM, 366.10 ± 0.97 µM and 364.43 ± 0.10 µM, respectively. For the same substance, the GSH/GSSG in the data set on normal lymphocytes [5] (RR1 5 μg/ml) is on record as 14.05 ± 0.41; in the data set on normal lymphocytes [5] (RR1 10 μg/ml) it was 14.34 ± 0.35; in the data set on normal lymphocytes [5] (RR1 50 μg/ml), 14.25 ± 0.40. Further, the GSSG in the data set on normal lymphocytes [5] (RR1 5 μg/ml) was 22.77 ± 0.58 µM; in the data set on normal lymphocytes [5] (RR1 10 μg/ml), 22.67 ± 0.41 µM; with normal lymphocytes [5] (RR1 50 μg/ml) it was 22.75 ± 0.55 µM. For the same substance, the “oxidative stress in lymphocytes” value in the data set with normal lymphocytes [5] (indicated by GSH, GSSG and their ratio) is listed as “does not produce any oxidative stress”. Moreover, in the data set on iNOS, the “induction of iNOS” value is given as “did not stimulate the induction of iNOS significantly”.
